Test results reported in publication PMC4710522, “A Novel Triazolopyridine-Based Spleen Tyrosine Kinase Inhibitor That Arrests Joint Inflammation” (PLoS ONE, 2016).

Assays:
[1] = rat pharmacokinetics; type: in vivo; settings: Sprague-Dawley, plasma
Protocol: Male and Female Sprague-dawley rats with jugular vein cannulation were obtained from Charles River Laboratories. All rats were maintained under standard conditions with access to food and water ad libitum. For intravenous (i.v.) dosing, CC-509 was dissolved in DMA/PEG400 (15/85, V/V). A dose of 2 mg/kg was administered to three male rats via jugular vein cannula with a dosing volume of 2 mL/kg followed by flushing 0.5 mL saline through the cannula. Blood were collected at 0.083, 0.25, 0.5, 1, 2, 4, 6, 8 and 24hr post dose. Plasma samples were separated by centrifugation of blood and stored at -20°C until analysis. For oral administration, four female rats (220–250g) were fasted for 12hr but allowed to access water prior to the dosing. CC-509 was formulated in 20% Captisol as a solution and was administered to the rats at 10 mg/kg by oral gavage with a dosing volume of 5mL/kg. Food was returned to the rats 2hr post dosing. Blood samples were collected at 0.5, 1, 2, 4, 6, 8 and 24hr post dose. Plasma samples were separated by centrifugation of blood and stored at -20°C until analysis. Plasma concentrations of CC-509 were quantified by a LC/MS/MS method. A total of 50 microliters (μL) of each plasma sample was extracted with three volumes of mixed solvent (methanol:acetonitrile (1:1). The extracted samples were filtered through a filtration plate (0.45μm, Varian, Inc.) and the filtrates were injected onto a LC-MS system. The LC-MS system consisted of a ThermoScientific (Waltham, MA) TSQ Quantum Ultra™ Mass Spectrometer coupled with a Thermo Accela™ ultra-high pressure liquid chromatogram (UPLC) system. Separation was achieved on a Thermo Hypersil Gold™ column (50 x 2.1 mm, 1.9 μm) by running a linear gradient of mobile phase at a flow rate of 0.5 mL/min. Mobile phase A and B consisted of 0.1% formic acid in water and 0.1% formic acid in methanol, respectively. Quantitation was performed using selected reaction monitoring (SRM) at the transition m/z 448 to m/z 364 for CC-509. PK parameters in plasma were estimated by WinNonLin software (Pharsight, Princeton, NJ) using non-compartmental analysis. For i.v. dosing, plasma clearance (CLp), volume distribution at steady-state (Vss) and mean residence time (MRT) were estimated. For oral administration, the maximum plasma concentration (Cmax), the time when the maximum plasma concentration is reached (Tmax) and area under the curve from 0 to infinity (AUC0-inf) were calculated.

[2] = tested on: AMPK_r; experiment: SelectScreen kinase assay; type: biochemical, rat; settings: 3 µM, KM ATP
Protocol: (§1) Syk kinase mode of inhibition studies, including parameters described in Fig 1, were conducted on the LC3000 platform by Caliper Life Sciences (Hopkinton, MA) according to standard protocols developed by the supplier. […] Non-kinase enzyme assays and GPCR, ion channel, and transporter binding assays were run by CEREP (France). Non-GLP manual patch clamp hERG assays were run by ChanTest (Cleveland, Ohio). Vivid® Assay kits (Life Technologies) were used to measure the cytochrome P450 inhibition of the compound against CYP3A, CYP2C9, CYP2C19, CYP2D6, and CYP1A2, as described.
Kinase activity was measured using either the Z’-Lyte® or the Adapta® protocols as part of the SelectScreen™ profiling service offered at Life Technologies (Grand Island, NY). For the single point measurements (Part A), CC-509 was kept constant at 3 µM while ATP concentrations [ATP] used were at the KM for ATP (KM ATP) for that specific enyzme, at 10 or 100 µM ATP (10 ATP or 100 ATP, respectively), as indicated. Values expressed as percent control (% control) relative to DMSO-only wells (uninhibited, 100%).
(§2) Kinase activity was measured using either the Z’-Lyte® or the Adapta® protocols as part of the SelectScreen™ profiling service offered at Life Technologies (Grand Island, NY). […] Values expressed as percent control (% control) relative to DMSO-only wells (uninhibited, 100%).

[3] = target: T1, Cyp1A2 (Homo sapiens, UniProt P05177); experiment: Vivid cytochrome P450 inhibition assay; type: in vitro ADME; settings: data not shown
T1 construct: purchased Life Technologies (Vivid Assay kits)
T1 sequence (P05177 whole entry): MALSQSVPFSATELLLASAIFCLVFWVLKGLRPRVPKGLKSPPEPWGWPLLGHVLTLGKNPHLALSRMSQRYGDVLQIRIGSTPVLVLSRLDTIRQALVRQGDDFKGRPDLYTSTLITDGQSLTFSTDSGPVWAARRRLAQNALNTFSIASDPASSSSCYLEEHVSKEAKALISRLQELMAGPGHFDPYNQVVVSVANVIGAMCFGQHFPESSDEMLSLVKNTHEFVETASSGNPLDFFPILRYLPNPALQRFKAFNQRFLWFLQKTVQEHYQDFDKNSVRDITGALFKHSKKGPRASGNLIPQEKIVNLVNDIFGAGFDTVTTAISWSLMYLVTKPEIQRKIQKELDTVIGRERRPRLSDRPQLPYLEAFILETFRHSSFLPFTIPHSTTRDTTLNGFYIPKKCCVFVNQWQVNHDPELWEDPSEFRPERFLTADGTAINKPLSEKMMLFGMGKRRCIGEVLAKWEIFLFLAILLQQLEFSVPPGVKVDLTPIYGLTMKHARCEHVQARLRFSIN
Protocol: as §1

[4] = target: T2, Cyp2C9 (Homo sapiens, UniProt P11712); experiment: Vivid cytochrome P450 inhibition assay; type: in vitro ADME; settings: data not shown
T2 construct: purchased Life Technologies (Vivid Assay kits)
T2 sequence (P11712 whole entry): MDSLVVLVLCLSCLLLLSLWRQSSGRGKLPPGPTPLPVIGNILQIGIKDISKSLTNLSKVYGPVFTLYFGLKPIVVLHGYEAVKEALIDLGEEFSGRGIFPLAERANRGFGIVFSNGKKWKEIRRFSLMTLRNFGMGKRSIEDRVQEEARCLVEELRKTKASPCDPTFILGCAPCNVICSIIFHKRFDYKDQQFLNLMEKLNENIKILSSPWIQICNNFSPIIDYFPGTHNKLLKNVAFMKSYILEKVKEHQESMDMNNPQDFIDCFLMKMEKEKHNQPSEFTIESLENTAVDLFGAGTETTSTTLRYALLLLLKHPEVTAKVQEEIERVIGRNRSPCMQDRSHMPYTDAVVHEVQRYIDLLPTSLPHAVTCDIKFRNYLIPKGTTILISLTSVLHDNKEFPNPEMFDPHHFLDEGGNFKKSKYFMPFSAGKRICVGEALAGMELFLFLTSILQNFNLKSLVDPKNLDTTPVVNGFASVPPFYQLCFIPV
Protocol: as §1

[5] = target: T3, Cyp3A4 (Homo sapiens, UniProt P08684); experiment: Vivid cytochrome P450 inhibition assay; type: in vitro ADME; settings: data not shown
T3 construct: purchased Life Technologies (Vivid Assay kits)
T3 sequence (P08684 whole entry): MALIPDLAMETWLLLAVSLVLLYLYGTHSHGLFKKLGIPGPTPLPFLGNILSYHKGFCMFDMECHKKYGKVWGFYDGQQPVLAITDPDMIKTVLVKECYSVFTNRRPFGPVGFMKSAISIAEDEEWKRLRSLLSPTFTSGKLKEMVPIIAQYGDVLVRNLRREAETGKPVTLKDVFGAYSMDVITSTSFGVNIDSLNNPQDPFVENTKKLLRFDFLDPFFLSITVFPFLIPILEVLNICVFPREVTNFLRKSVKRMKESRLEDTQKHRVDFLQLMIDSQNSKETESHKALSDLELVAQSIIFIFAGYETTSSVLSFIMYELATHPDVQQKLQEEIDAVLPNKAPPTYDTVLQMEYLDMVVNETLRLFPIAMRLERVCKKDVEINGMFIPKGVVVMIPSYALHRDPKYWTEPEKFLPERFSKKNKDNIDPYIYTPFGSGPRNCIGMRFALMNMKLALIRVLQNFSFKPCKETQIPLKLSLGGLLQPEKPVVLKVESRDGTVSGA
Protocol: as §1

[6] = target: T4, Cyp2D6 (Homo sapiens, UniProt P10635); experiment: Vivid cytochrome P450 inhibition assay; type: in vitro ADME; settings: data not shown
T4 construct: purchased Life Technologies (Vivid Assay kits)
T4 sequence (P10635 whole entry): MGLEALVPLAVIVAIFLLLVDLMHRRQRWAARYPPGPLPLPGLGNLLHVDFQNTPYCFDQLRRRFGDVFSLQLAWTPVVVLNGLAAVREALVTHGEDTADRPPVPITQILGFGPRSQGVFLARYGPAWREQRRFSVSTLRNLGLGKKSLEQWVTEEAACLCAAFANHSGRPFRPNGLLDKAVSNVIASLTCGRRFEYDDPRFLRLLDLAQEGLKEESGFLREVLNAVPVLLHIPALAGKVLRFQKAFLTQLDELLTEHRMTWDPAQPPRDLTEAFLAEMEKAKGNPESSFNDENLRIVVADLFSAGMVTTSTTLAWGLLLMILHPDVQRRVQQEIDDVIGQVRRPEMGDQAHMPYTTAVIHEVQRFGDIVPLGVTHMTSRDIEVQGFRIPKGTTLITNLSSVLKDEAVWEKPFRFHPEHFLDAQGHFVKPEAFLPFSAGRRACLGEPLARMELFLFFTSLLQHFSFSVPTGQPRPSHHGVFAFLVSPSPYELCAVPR
Protocol: as §1

[7] = target: T5, Cyp2C19 (Homo sapiens, UniProt P33261); experiment: Vivid cytochrome P450 inhibition assay; type: in vitro ADME; settings: data not shown
T5 construct: purchased Life Technologies (Vivid Assay kits)
T5 sequence (P33261 whole entry): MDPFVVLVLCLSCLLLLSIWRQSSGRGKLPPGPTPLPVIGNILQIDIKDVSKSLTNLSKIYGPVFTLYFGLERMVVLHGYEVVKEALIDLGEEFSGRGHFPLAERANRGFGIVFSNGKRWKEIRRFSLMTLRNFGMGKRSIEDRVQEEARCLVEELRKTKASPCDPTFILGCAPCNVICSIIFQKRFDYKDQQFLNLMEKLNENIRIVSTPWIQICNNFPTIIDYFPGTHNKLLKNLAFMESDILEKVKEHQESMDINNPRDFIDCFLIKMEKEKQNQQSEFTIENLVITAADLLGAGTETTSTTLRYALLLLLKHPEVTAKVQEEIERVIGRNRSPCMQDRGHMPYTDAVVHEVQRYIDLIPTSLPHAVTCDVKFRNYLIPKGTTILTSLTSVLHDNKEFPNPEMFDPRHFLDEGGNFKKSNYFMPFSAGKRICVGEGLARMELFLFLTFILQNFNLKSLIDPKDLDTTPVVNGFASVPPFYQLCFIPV
Protocol: as §1

[8] = target: T6, Rsk1_h (Homo sapiens, UniProt Q15418); experiment: SelectScreen kinase assay; type: biochemical; settings: KM ATP, read-out: % control
T6 construct: purchased Life Technologies (Invitrogen) SelectScreen, Z'-LYTE / Adapta
T6 sequence (Q15418 whole entry): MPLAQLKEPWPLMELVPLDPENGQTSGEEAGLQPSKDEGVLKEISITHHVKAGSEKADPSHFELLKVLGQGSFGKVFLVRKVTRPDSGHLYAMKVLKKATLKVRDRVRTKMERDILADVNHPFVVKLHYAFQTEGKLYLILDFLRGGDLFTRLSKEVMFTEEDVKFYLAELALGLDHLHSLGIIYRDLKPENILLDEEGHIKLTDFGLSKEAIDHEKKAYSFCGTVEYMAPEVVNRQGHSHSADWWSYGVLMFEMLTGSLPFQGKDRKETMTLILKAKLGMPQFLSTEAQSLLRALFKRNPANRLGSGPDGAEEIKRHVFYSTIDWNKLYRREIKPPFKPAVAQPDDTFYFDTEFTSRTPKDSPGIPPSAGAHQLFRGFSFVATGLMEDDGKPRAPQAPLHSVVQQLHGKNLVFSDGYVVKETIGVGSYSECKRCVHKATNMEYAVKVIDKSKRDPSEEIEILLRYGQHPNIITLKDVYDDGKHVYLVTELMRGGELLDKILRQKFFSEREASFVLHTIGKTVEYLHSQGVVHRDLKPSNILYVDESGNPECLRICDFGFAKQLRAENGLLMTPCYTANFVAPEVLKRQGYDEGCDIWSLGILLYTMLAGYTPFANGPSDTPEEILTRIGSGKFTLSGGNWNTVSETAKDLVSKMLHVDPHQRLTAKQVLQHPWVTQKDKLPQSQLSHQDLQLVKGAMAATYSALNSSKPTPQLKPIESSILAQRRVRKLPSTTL

[9] = target: T7, Ret_V804L_h (Homo sapiens, UniProt P07949, V804L); experiment: SelectScreen kinase assay; type: biochemical; settings: KM ATP, read-out: % control
T7 construct: purchased Life Technologies (Invitrogen) SelectScreen, Z'-LYTE / Adapta
T7 sequence (P07949 29-1114 V804L): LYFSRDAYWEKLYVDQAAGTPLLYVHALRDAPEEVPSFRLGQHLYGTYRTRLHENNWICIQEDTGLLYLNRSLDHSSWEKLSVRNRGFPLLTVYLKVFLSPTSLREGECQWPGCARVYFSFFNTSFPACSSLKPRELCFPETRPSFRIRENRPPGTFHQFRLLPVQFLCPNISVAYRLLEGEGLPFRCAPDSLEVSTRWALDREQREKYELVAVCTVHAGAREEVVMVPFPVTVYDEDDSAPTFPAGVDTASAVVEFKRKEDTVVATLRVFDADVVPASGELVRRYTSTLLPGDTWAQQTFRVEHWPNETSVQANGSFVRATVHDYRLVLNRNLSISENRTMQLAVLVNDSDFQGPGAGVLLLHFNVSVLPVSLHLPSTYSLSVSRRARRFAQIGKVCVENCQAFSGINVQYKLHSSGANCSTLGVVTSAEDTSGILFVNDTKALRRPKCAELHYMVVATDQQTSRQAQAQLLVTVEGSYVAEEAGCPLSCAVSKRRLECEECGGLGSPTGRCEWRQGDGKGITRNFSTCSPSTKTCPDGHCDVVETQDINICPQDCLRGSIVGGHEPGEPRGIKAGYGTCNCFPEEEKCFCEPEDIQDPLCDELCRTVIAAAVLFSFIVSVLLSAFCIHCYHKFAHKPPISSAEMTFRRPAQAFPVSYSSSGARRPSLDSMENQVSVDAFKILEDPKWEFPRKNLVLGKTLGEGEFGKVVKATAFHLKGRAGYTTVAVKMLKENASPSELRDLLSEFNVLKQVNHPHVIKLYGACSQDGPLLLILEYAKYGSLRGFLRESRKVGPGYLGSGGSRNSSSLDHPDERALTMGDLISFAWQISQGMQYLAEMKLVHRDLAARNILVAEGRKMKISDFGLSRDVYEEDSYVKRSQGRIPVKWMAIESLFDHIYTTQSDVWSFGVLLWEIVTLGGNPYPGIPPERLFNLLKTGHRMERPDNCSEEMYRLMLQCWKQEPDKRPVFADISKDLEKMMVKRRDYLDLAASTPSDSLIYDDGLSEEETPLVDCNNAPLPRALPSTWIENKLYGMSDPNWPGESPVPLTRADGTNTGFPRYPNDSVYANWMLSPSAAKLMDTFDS

[10] = tested on: rat passive cutaneous anaphylaxis model; settings: 10 mg/kg dose; cited from earlier work
[11] = tested on: proinflammatory analytes in paw tissue; settings: cited from earlier work
[12] = target: T8, DNAPK_h (Homo sapiens, UniProt P78527); experiment: SelectScreen kinase assay; type: biochemical; settings: 3 µM, KM ATP
T8 construct: purchased Life Technologies (Invitrogen) SelectScreen, Z'-LYTE / Adapta
Protocol: as §1, §2

Compound | AUC(0-inf) ([1]; iv, i.v. 2 mg/kg, male rats) [µM·h] | clearance ([1]; iv, i.v. 2 mg/kg, male rats, read-out: clearance (CL)) [mL/min/kg] | MRT ([1]; iv, i.v. 2 mg/kg, male rats, read-out: mean residence time (MRT)) [h] | Vd ([1]; iv, i.v. 2 mg/kg, male rats, read-out: volume of distribution (Vss)) [L/kg] | AUC(0-inf) ([1]; oral 10 mg/kg, female rats) [µM·h] | Cmax ([1]; oral 10 mg/kg, female rats) [µM] | Tmax ([1]; oral 10 mg/kg, female rats, read-out: time of maximal plasma concentration (converted)) [h] | % control [2] [%] | inhibition of Cyp450 activity [3] | inhibition of Cyp450 activity [4] | inhibition of Cyp450 activity [5] | inhibition of Cyp450 activity [6] | inhibition of Cyp450 activity [7] | remaining activity at 3 µM [8] [%] | remaining activity at 3 µM [9] [%] | effect in the PCA model [10] | expression of MCP-1, KC, IL-6 and IL-1β in the CIA model [11] | % control [12] [%]
c1cc(CC2CCOCC2)n2nc(Nc3ccc4c(NC5CCOCC5)n[nH]c4c3)nc2c1 [CC-509, [3-(2H-3,4,5,6-tetrahydropyran-4-ylamino)(1H-indazol-6-yl)][5-(2H-3,4,5,6-tetrahydropyran-4-ylmethyl)(2H-1,2,4-triazolo[1,5-a]pyridin-2-yl)]amine] | 4.02 ± 0.7 | 18.9 ± 3.5 | 2.3 ± 1.5 | 2.8 ± 2.36 | 12 ± 1 | 4.4 ± 0.2 | 0.5 | 84 | did not inhibit | did not inhibit | did not inhibit | did not inhibit | did not inhibit | 60 | 22 |  |  | 
COc1cc(Nc2ncc(F)c(Nc3ccc4c(n3)NC(=O)C(C)(C)O4)n2)cc(OC)c1OC [R406, reference compound] |  |  |  |  |  |  |  |  |  |  |  |  |  |  |  | statistically significant effect | inhibited | 87
